One data set concerns MV4-11. The experiment in a line: Oncology cell growth assay, MV4-11. Type of data set: cell-based, human. Conditions: MV4-11, AML (acute myeloid) leukemia, gIC50, 72 hours. How it is done: (§1) Human cell lines were cultured in RPMI-1640 containing 10% fetal bovine serum, 1000 viable cells per well were plated in 384-well black flat bottom polystyrene plates (Greiner #781086) in 48 ˜I of culture media. All plates were placed at 5% CO2, 37° C. overnight. The following day one plate was harvested with CeliTiter-Glo (CTG, Promega #G7573) for a time equal to 0 (TO) measurement and compound (20 point titration from 14.7 uM to 7 pM) was added to the remaining plates. The final concentration of DMSO in all wells was 0.15%. Cells were incubated for 72 hours or the indicated time and each plate was developed with CeliTiterGlo reagent using a volume equivalent to the cell culture volume in the wells. Plates were shaken for approximately 2 minutes and chemiluminescent signal was read on the Analyst GT (Molecular Devices) or EnVision Plate Reader (Perkin Elmer).
(§2) Results are expressed as a percent of the TO and plotted against the compound concentration. The TO value was normalized to 100% and represents the number of cells at time of compound addition and the concentration response data were fit with a 4 parameter curve fit using XLfit software (model 205). […] The Ymin-TO value was determined by subtracting the TO value (100%) from the Ymin value (%) determined from the fit of the concentration response curve. […]

Data set [1] concerns the target T1, BRD4-FL: Full length BRD4 (Homo sapiens, UniProt O60885).
T1 construct: BRD4-FL: Full length BRD4
The experiment in a line: Bromodomain binding assay (Example 6), BRD4-FL. How it is done: (§3) The binding of the compounds of the application to bromodomains BRD2, BRD3 and BRD4 was assessed using a time resolved fluorescent resonance energy transfer binding assay (Alpha Screen Technology), that measures the binding of an acetylated histone peptide to the bromodomain protein.
(§4) The bromodomain protein, histone peptide and a variable concentration of test compound were incubated together to reach thermodynamic equilibrium.

Another data set addresses T2, BRD3-1 (Homo sapiens, UniProt Q15059).
T2 construct: BRD3-1: Domain 1 of BRD3
The experiment in a line: BET Bromodomain AlphaScreen assay (Example 9), BRD3-1. Type of data set: binding. As for the experimental part: (§5) The reader assay was a binding assay using the AlphaScreen technology fluorescence energy resonance transfer (FRET) assay. The biotinylated peptide binding to the reader domain of His-tagged protein is monitored by the singlet oxygen transfer from the Streptavidin-coated donor beads to the AlphaScreen Ni-chelate acceptor beads.
(§6) Reaction buffer: 50 mM Hepes, pH7.5, 100 mM NaCl, 0.05% CHAPS, 0.1% BSA, and 1% DMSO (Buffer and DMSO concentration may be different for different reader).
(§7) Biotin-peptide; sequences were different for different targets.
(§8) Reaction Procedure: • 1. Deliver 4× BRD in wells of reaction plate except No BRD control wells. Add buffer instead. • 2. Deliver compounds in 100% DMSO into the BRD mixture by Acoustic technology (Echo550; nanoliter range). Spin down and pre-incubation for 30 min. • 3. Deliver 4× Ligand. Spin and shake. • 4. Incubate for 30 min at room temperature with gentle shaking. • 5. Deliver 4× donor beads. Spin and shake. • 6. Deliver 4× acceptor beads. Spin and shake. Then gentle shaking in the dark for 60 min. • 7.
(In general: In Alpha technology, singlet oxygen from a donor bead excites a nearby acceptor bead.)

In the next data set the test system is AML2. The experiment in a line: Oncology cell growth assay, AML2. Conditions: AML2, AML (acute myeloid leukemia), gIC50, 72 hours. Type of data set: cell-based, human. How it is done:
as §1, §2

The next data set addresses T3, BRD2-1 (Homo sapiens, UniProt P25440).
T3 construct: BRD2-1: Domain 1 of BRD2
The experiment in a line: BET Bromodomain AlphaScreen assay (Example 9), BRD2-1. Type of data set: binding. How it is done: as §5, §6, §7, §8

The next data set deals with MM.1S. The data set can be described thus: Oncology cell growth assay, MM.1S. Type of data set: cell-based, human. Conditions: Multiple myeloma, gIC50, 72 hours. As for the experimental part:
as §1, §2

The next data set has as its target T4, BRD2-1: Domain 1 of BRD2 (Homo sapiens, UniProt P25440).
T4 construct: BRD2-1: Domain 1 of BRD2
The data set can be described thus: Bromodomain binding assay (Example 6), BRD2-1. As for the experimental part: as §3, §4

The next data set has as its system RPMI-8226. The experiment in a line: Oncology cell growth assay, RPMI-8226. Conditions: RPMI-8226, Multiple myeloma, gIC50, 72 hours. Type of data set: cell-based, human. How it is done:
as §1, §2

The target of a further data set is T5, BRD3-1: Domain 1 of BRD3 (Homo sapiens, UniProt Q15059).
T5 construct: BRD3-1: Domain 1 of BRD3
T5 sequence (Q15059 34-140 limits assumed): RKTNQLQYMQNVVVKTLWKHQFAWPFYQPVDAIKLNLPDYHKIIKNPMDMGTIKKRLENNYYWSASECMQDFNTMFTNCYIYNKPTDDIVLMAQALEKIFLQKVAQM
The data set can be described thus: Bromodomain binding assay (Example 6), BRD3-1. As for the experimental part:
as §3, §4

In another data set the test system is TEX. The data set can be described thus: Oncology cell growth assay, TEX. Conditions: AML (acute myeloid leukemia), gIC50, 72 hours. It counts as cell-based, human. How it is done:
as §1, §2

The subject of data set [2] is MV4-11 human AML xenograft. The experiment in a line: MV4-11 subcutaneous human AML xenograft model, efficacy. Type of data set: in vivo, NOD SCID mice. Conditions: PO. How it is done: • Species & Strain: NOD SCID mice • Age: 7-8 week • Total Number: 60 mice plus 40% spare • Sex: Female • Body Weight: 18 to 22 g Animal Maintenance
Groups and treatments started when the mean tumor volume reached 138 mm^3. Based on the tumor volume, mice were randomly assigned to respective groups using a computer-generated randomization procedure.
Each mouse was inoculated subcutaneously on the right flank with MV4-11 tumor cells ([…]) in 0.1 ml of IMDM without serum for tumor development. The treatment started when the mean tumor size reached approximately 138 mm^3. Mice were randomized into groups.
During the course of study, the tumor size was measured twice a week in two dimensions using a caliper, and the volume was expressed in mm^3 using the formula: TV=a×b2/2 where a and b were the long and short diameters of the tumor, respectively. The tumor size was then used for T/C and TGI (tumor growth inhibition) values, which were indicators of anti-tumor effectiveness. T/C was calculated with the formula [(Td−T0)/(Cd−C0)]×100%, TGI is calculated with the formula [1−(Td−T0)/(Cd−C0)]×100%. Td and Cd were the mean tumor volumes (or median tumor volumes) of the treated and control animals, and T0 and C0 were the mean tumor volumes of the treated and control animals at the start of the experiment.
(In general: A xenograft is tissue or cells of one species grown in another, often human tumour cells in immunodeficient mice.)

The nature of data set [3]: Liver microsome stability, mouse. Type of data set: in vitro ADME, mouse (CD-1. Conditions: male, CD-1, mouse, pooled mouse liver microsomes, 1 μM compound, 0.5 mg/ml microsomes, 37° C., read-out: % recovery Mouse Liver Microsomes (MLM) (30 min). How it is done:
(§9) Working stocks were initially diluted to a concentration of 40.0 μM in 0.1 M potassium phosphate buffer before addition to the reaction vials. Pooled mouse (CD-1, male) or human (50 donors) liver microsomes were utilized at a final concentration of 0.5 mg/ml. Duplicate wells were used for each time point (0 and 30 minutes). Reactions were carried out at 37° C. in a shaker, and the final concentration of DMSO was kept constant at 0.01%. The final volume for each reaction was 100 μL, which includes the addition of an NADPH-Regeneration solution (NRS) mix. This NRS mix was comprised of glucose 6-phosphate dehydrogenase (0.4 U/mL), NADP+ (1.3 mM), MgCl2 (3.3 mM), and glucose 6-phosphate (3.3 mM) in assay mixtures. Upon completion of the 30 minute time point, reactions were terminated by the addition of 1.5-volumes (150 μL) of ice-cold, acetonitrile with 0.5% formic acid and internal standard. Samples were then centrifuged at 4,000 rpm for 10 minutes to remove debris and precipitated protein. Approximately 150 μL of supernatant was subsequently transferred to a new 96 well microplate for LC/MS analysis.
(§10) Narrow-window mass extraction LC/MS analysis was performed for all samples using a Waters Xevo quadrupole time-of-flight (QTof) mass spectrometer and an ACQUITY UPLC system, to determine relative peak areas of parent compound.
For orientation: Microsomes from liver hold many membrane-bound enzymes, among them those of drug oxidation.

The subject of the next data set is HL60. The data set can be described thus: Oncology cell growth assay, HL60. Type of data set: cell-based, human. Conditions: HL60, Promyelocytic leukemia, gIC50, 72 hours. As for the experimental part: as §1, §2
Another data set has as its target T6, BRD4-FL (Homo sapiens, UniProt O60885).
T6 construct: BRD4-FL: Full length BRD4
The experiment in a line: BET Bromodomain AlphaScreen assay (Example 9), BRD4-FL. Type of data set: binding. As for the experimental part: as §5, §6, §7, §8

A short description of data set [4]: Liver microsome stability, human. Type of data set: in vitro ADME. Conditions: pooled human liver microsomes (50 donors), 1 μM compound, 0.5 mg/ml microsomes, 37° C., read-out: % recovery Human Liver Microsomes (HLM) (30 min). How it is done:
as §9, §10

Data set [5] in a line: MV4-11 xenograft model, tolerance (body weight, clinical signs). Type of data set: in vivo. How it is done: For routine monitoring, all study animals were monitored not only tumor growth but also behavior such as mobility, food and water consumption (by cage side checking only), body weight (BW), eye/hair matting and any other abnormal effect. Any mortality and/or abnormal clinical signs would be recorded.
Body weights of all animals were measured twice weekly throughout the study.

Another data set deals with SK-OV-3. The experiment in a line: Oncology cell growth assay, SK-OV-3. Type of data set: cell-based, human. Conditions: SK-OV-3, Ovarian cancer, gIC50, 72 hours. As for the experimental part:
as §1, §2

In a further data set the test system is MOLT4. The data set can be described thus: Oncology cell growth assay, MOLT4. Conditions: MOLT4, acute lymphoid leukemia; gIC50, 72 hours. Type of data set: cell-based, human. As for the experimental part:
as §1, §2

Another data set deals with ABC DLBCL. Conditions: combination with drugs targeting B-cell receptor signaling; cited from earlier work.
Another data set deals with AR target genes. Conditions: AR-positive cells; cited from earlier work.
The test system of data set [6] is prostate cancer cell lines with activated AR signaling. Conditions: cited from earlier work.
Another data set has as its system GBM cell. Conditions: in vitro and in vivo; cited from earlier work.

T3 sequence (P25440 74-180 limits assumed): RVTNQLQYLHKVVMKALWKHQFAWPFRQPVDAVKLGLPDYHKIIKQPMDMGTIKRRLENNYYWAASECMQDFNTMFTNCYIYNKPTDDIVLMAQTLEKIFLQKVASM
T4 sequence (P25440 74-180 limits assumed): as above
T2 sequence (Q15059 34-140 limits assumed): as the sequence (Q15059 34-140 limits assumed) above

One may read the IC50 as the concentration needed to halve the response being measured. Low values mean greater potency in that assay, high ones weaker potency in that assay. The term EC50 denotes the concentration giving half of the maximal effect. With `COc1cc2c(cc1-c1c(C)noc1C)ncc1nc(C3CC3)n([C@H](C)COC(F)F)c12.Cl` [2(l), 4-[2-cyclopropyl-1-[(1R)-2-(difluoromethoxy)-1-methyl-ethyl]-8-methoxy-imidazo[4,5-c]quinolin-7-yl]-3,5-dimethyl-isoxazole hydrochloride], the IC50 amounted to 156 ± 43 nM in the data set with MV4-11 (Homo sapiens); 33 nM in data set [1]; 15 ± 1 nM in the data set on AML2 (Homo sapiens); 94 ± 14 nM in the data set with MM.1S (Homo sapiens, MM1.S); 42 nM on BRD2-1: Domain 1 of BRD2; 109 ± 32 nM in the data set on RPMI-8226 (Homo sapiens). Also, the concentration for half-maximal inhibition (IC50) at BRD3-1: Domain 1 of BRD3 was determined as 21 nM; in the data set with TEX (Homo sapiens), 52 ± 73 nM; with HL60 (Homo sapiens, HL-60), 179 ± 10 nM; in the data set with SK-OV-3 (Homo sapiens), 360 ± 10 nM. The EC50 on BRD3-1 was determined as 20.7 nM; at BRD2-1, 42.2 nM; at BRD4-FL it was 33.1 nM. Moreover, in [2] (30 mg/kg and 50 mg/kg), the antitumor activity result is reported as “significant antitumor activity”. In addition, the recovery at 30 min, 1 μM in [3] worked out at 3%; in [4], 43.6%. Also, the tolerance entry in [5] (all dose levels (30 and 50 mg/kg PO)) was “tolerated well”.

Consider `COc1cc2c(cc1-c1c(C)noc1C)ncc1nc(C3CCOCC3)n([C@H](C)COC(F)F)c12.Cl` [2(g)·HCl], for which the IC50 in the data set on MV4-11 was 14 ± 7 nM; in the data set with AML2 it was 18 ± 2 nM; with MM.1S, 17 ± 4 nM; in the data set with RPMI-8226, 303 ± 6 nM; in the data set on TEX, 23 ± 2 nM; with MOLT4, 1140 nM. In addition, the IC50 was 51 ± 3 nM in the data set on HL60 and 2180 ± 1440 nM in the data set with SK-OV-3. Further, the antitumor activity entry is reported as “significant antitumor activity” in data set [2] (30 mg/kg and 50 mg/kg); “moderate antitumor activity” in data set [2] (low-dose 10 mg/kg, QD × 14). In addition, the body weight loss in data set [5] (50 mg/kg PO, during the dosing period) is on record as 9.1%. Besides, in data set [5] (50 mg/kg, after a two days dose suspension on Day 8 and 9), the “body weight after dose suspension” value is “maintained or recovered”.

With `Cc1sc2c(c1C)C(c1ccc(Cl)cc1)=N[C@@H](CC(=O)OC(C)(C)C)c1nnc(C)n1-2` [JQ-1], the drug-drug synergy result in the data set with ABC DLBCL is recorded as “combined favorably with multiple drugs targeting B-cell receptor signaling”. For the same compound, in the data set on AR target genes, the “levels of transcription of AR target genes” value is recorded as “globally reduced the levels of transcription of AR target genes”. The “apoptosis and cell cycle arrest” value in data set [6] was “sensitive to JQ1-induced apoptosis and cell cycle arrest”.

For `COc1cc2c(cc1-c1c(C)noc1C)ncc1[nH]c(=O)n([C@H](C)c3ccccn3)c12` [I-BET151], in the data set with GBM cell, the GBM cell proliferation entry was “reduced GBM cell proliferation in vitro and in vivo”.

The values are drawn from patent US10259809B2, “Fluorinated imidazo[4,5-C]quinoline derivatives as inhibitors of bromodomain containing proteins” (Trillium Therapeutics Inc., priority 2015, dated 2019).
